We go through eight compounds from US11814367B2, “Inhibitors of glycogen synthase 1 (GYS1) and methods of use thereof” (Maze Therapeutics, Inc., priority 2021, dated 2023).

Test [1] deals with hGYS1 enzyme (recombinant hGYS1/GN1 protein) (Homo sapiens (Human), UniProt P13807). Description: GYS1 coupled enzyme assay (PK/LDH). Particulars: hGYS1/GN1 50 nM, UDP-Glucose 0.8 mM, G6P 1 mM; geometric mean of at least 2 runs. Format: biochemical.
In test [2] the test system is hGYS1 enzyme / glycogen synthesis in HeLa cells. Put plainly: GYS1 cell based assay (glycogen synthesis, Glucose-glo). Also noted: species or system human. The conditions noted are these: Homo sapiens, HeLa, 24 h, 24 h incubation, 20 mM glucose, geometric mean of at least 2 runs. In outline: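 HeLa cells starved 24 h in medium containing only 1× Glutamax were plated onto compound in medium with 20 mM glucose (1% DMSO final) for 24 h, 37 °C, 5% CO2. Acid lysates were Tris-quenched, glucoamylase-digested (pH 5.3, 1 h, 37 °C) and read by Glucose-glo luminescence. IC50 came from Hill fits, as geometric mean of ≥2 runs.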

Test [3] has as its target hGYS2 enzyme (recombinant hGYS2/GN1 protein) (Homo sapiens (Human), UniProt P54840). Description: GYS2 coupled enzyme assay (PK/LDH). The conditions noted are these: geometric mean of at least 2 assay runs on separate days, read-out: Avg_IC50. It is filed as biochemical. The gist of the method: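 Recombinant hGYS2/GN1 (200 nM) with 2 mM UDP-glucose, 0.2% rabbit liver glycogen, 2 mM glucose-6-phosphate; UDP coupled via PK/LDH (2 mM PEP, 0.6 mM NADH). Buffer 50 mM Tris pH 7.5, 2 mM MgCl2, 100 mM KCl, 2.5% DMSO. A340 slope over 10 min; IC50 from Hill fit of duplicates.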

hGYS2 enzyme (recombinant hGYS2/GN1 protein), sequence (P54840 whole entry): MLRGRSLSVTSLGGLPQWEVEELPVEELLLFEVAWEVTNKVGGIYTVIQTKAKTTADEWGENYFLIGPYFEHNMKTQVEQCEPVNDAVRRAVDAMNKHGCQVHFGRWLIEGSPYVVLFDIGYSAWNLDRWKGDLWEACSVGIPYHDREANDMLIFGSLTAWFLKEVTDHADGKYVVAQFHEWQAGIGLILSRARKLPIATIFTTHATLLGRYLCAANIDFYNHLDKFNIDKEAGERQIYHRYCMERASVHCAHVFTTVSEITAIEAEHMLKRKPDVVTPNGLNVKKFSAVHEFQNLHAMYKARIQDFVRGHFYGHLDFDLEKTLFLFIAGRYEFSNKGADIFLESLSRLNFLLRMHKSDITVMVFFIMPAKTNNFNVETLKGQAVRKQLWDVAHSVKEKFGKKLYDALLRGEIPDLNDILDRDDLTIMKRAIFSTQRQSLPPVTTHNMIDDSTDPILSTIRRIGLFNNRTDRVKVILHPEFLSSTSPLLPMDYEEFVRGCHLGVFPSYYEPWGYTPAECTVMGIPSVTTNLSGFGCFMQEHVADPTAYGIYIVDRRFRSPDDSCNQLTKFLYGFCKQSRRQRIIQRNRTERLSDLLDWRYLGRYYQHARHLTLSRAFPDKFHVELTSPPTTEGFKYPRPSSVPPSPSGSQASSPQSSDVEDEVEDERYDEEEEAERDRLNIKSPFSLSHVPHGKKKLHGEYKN
hGYS2 enzyme (recombinant hGYS2/GN1 protein), sequence (P46976 whole entry partner): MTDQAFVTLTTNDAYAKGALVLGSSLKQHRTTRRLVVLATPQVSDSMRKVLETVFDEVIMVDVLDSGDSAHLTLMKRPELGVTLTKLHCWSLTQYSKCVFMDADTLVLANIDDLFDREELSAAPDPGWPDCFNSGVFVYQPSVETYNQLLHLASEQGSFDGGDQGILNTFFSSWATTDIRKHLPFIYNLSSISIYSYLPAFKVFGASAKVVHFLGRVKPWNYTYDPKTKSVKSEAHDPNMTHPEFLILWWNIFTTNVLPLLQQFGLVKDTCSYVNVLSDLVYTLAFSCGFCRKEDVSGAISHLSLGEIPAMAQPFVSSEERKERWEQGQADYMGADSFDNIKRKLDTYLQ
hGYS1 enzyme (recombinant hGYS1/GN1 protein), sequence (P13807 whole entry): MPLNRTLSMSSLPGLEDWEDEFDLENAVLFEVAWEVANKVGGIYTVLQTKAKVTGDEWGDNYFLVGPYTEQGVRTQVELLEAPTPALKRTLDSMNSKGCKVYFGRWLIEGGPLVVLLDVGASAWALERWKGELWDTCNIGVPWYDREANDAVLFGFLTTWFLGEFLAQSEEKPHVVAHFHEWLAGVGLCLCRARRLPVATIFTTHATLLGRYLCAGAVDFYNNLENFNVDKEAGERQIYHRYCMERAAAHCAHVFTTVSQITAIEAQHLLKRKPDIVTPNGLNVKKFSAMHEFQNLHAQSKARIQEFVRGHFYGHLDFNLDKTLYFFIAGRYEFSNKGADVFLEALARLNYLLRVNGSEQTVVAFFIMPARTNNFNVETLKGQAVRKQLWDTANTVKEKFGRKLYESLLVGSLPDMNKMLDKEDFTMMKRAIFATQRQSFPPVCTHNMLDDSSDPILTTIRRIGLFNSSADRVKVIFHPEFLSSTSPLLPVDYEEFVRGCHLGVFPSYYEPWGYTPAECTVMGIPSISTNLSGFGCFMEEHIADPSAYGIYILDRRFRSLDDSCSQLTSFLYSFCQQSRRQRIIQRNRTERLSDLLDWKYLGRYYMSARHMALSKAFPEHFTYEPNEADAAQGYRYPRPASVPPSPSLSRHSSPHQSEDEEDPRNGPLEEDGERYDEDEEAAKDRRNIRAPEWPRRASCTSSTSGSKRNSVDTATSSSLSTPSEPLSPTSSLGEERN
hGYS1 enzyme (recombinant hGYS1/GN1 protein), sequence (P46976 whole entry partner): as the sequence (P46976 whole entry partner) above

As for `CC1(c2ccc([C@@H](NC(=O)[C@@H]3C[C@@H](F)CN3C(=O)COC(=O)N3CCN(CC4CC4)CC3)c3ccccc3)cc2F)CC1` [Compound 584, 2-[(2S,4R)-4-fluoro-2-{[(S)-[3-fluoro-4-(1-methylcyclopropyl)phenyl](phenyl)methyl]carbamoyl}pyrrolidin-1-yl]-2-oxoethyl 4-(cyclopropylmethyl) piperazine-1-carboxylate], the values for the IC50 in test [1], in test [2] and in test [3] were 104 nM, 4070 nM and > 91800 nM, respectively.

`CC1(c2ccc([C@@H](NC(=O)[C@@H]3C[C@@H](F)CN3C(=O)COC(=O)N3CCN(CC(F)(F)F)CC3)c3ccccc3)cc2F)CC1` [Compound 585, 2-[(2S,4R)-4-fluoro-2-{[(S)-[3-fluoro-4-(1-methylcyclopropyl)phenyl](phenyl)methyl]carbamoyl}pyrrolidin-1-yl]-2-oxoethyl 4-(2,2,2-trifluoroethyl) piperazine-1-carboxylate]: the figures for the IC50 in test [1], in test [2] and in test [3] were 202 nM, 3210 nM and > 100000 nM, respectively.

Turning to `CC1(c2ccc([C@@H](NC(=O)[C@@H]3C[C@@H](F)CN3C(=O)Cc3n[nH]c4ccccc34)c3ccccc3)nc2F)CC1` [Compound 588, (2S,4R)-4-fluoro-N-[(S)-[6-fluoro-5-(1-methylcyclopropyl)pyridin-2-yl] (phenyl)methyl]-1-[2-(1H-indazol-3-yl)acetyl]pyrrolidine-2-carboxamide], the IC50 is 36 nM in test [1], 480 nM in test [2] and > 100000 nM in test [3].

For the compound `CC1(c2ccc([C@@H](NC(=O)[C@@H]3C[C@@H](F)CN3C(=O)CNC(=O)N3CCOCC3)c3ccccc3)nc2F)CC1` [Compound 589, N-{2-[(2S,4R)-4-fluoro-2-{[(S)-[6-fluoro-5-(1-methylcyclopropyl)pyridin-2-yl](phenyl)methyl]carbamoyl}pyrrolidin-1-yl]-2-oxoethyl} morpholine-4-carboxamide], the IC50 in test [1] was 101 nM; in test [2] it was 1420 nM; in test [3] it was > 100000 nM.

On to `CC1(c2ccc([C@H](NC(=O)[C@@H]3C[C@@H](F)CN3C(=O)Cc3n[nH]c4ccccc34)c3ccccc3)nc2F)CC1` [Compound 590, (2S,4R)-4-fluoro-N-[(R)-[6-fluoro-5-(1-methylcyclopropyl)pyridin-2-yl](phenyl)methyl]-1-[2-(1H-indazol-3-yl)acetyl]pyrrolidine-2-carboxamide], for which the IC50 in test [1] is 2550 nM; in test [2], 23400 nM; in test [3] it was > 100000 nM.

Take `Cn1c(CC(=O)N2C[C@H](F)C[C@H]2C(=O)N[C@@H](c2ccccc2)c2ccc(C3(C)CC3)c(F)n2)cc2ccccc21` [Compound 591, (2S,4R)-4-fluoro-N-[(S)-[6-fluoro-5-(1-methylcyclopropyl)pyridin-2-yl](phenyl)methyl]-1-[2-(1-methyl-1H-indol-2-yl)acetyl]pyrrolidine-2-carboxamide]: the IC50 in test [1] is 32 nM; in test [2], 310 nM; in test [3] it was > 100000 nM.

Take `Cn1cc(CC(=O)N2C[C@H](F)C[C@H]2C(=O)N[C@@H](c2ccccc2)c2ccc(C3(C)CC3)c(F)n2)c2ccccc21` [Compound 592, (2S,4R)-4-fluoro-N-[(S)-[6-fluoro-5-(1-methylcyclopropyl)pyridin-2-yl](phenyl)methyl]-1-[2-(1-methyl-1H-indol-3-yl)acetyl]pyrrolidine-2-carboxamide]: the IC50 in test [1] is 10 nM; in test [2], 330 nM; in test [3] it was > 100000 nM.

Consider `Cc1nc2ccccc2n1CC(=O)N1C[C@H](F)C[C@H]1C(=O)N[C@@H](c1ccccc1)c1ccc(C2(C)CC2)c(F)n1` [Compound 593, (2S,4R)-4-fluoro-N-[(S)-[6-fluoro-5-(1-methylcyclopropyl)pyridin-2-yl](phenyl)methyl]-1-[2-(2-methyl-1H-1,3-benzodiazol-1-yl)acetyl]pyrrolidine-2-carboxamide], for which the IC50 in test [1] is 19 nM; in test [2], 280 nM; in test [3], > 100000 nM.
